According to ChEMBL document CHEMBL3301555, “MMV Malaria Box screening in pLDH viability assay against Plasmodium falciparum gametocytes”:

What follows are molecules tested on Plasmodium falciparum (assay: MMV: Measure of pLDH activity as indication of parasite viability. Gametocytogenesis of 3D7 Plasmodium falciparum strain was induced in vitro and asexual parasites were depleted with N-acetylglucosamine. Gametocytes were treated with dihydroartemisinin, epoxomicin, methylene blue, primaquine, puromycin or chloroquine in 96-well plates and the pLDH activity was evaluated using a modified Makler protocol. Mosquito infectivity was measured by the standard membrane feeding assay.).
Assay type: functional
Design: concentration or dose not given beside the values
`COc1ccc2c(c1)C1(Nc3ccccc3-c3nc4ccccc4n31)C(=O)N2` (stereo not drawn) was tested, and the “Growth Inhibition” value was 23.3334%. With `CCOc1cc(CNC(C)C(O)c2ccccc2)cc(Cl)c1OCC` (stereo not drawn) the “Growth Inhibition” value was 17.857%. For `CCOc1c(Cl)cc(CNCC(O)c2ccccc2)cc1OC` (stereo not drawn), the “Growth Inhibition” value was 20.5848%. In the case of `OC(CNCC1CCCO1)Cn1c2ccc(Cl)cc2c2cc(Cl)ccc21` (stereo not drawn), the “Growth Inhibition” value is reported as 10.6906%. For `COc1ccc2nc(C)cc(Nc3ccccc3O)c2c1`, the “Growth Inhibition” value was 10.6942%. For `CCn1nc(-c2ccc(C(=O)OC)cc2)nc2c(=O)n(C)c(=O)nc1-2`, the “Growth Inhibition” value was 19.8788%. `Cc1cc(NC(=O)c2cccc(C(F)(F)F)c2)n(-c2nc(-c3ccc4c(c3)OCO4)cs2)n1` was tested, and the “Growth Inhibition” value was 1.3202%. For `CC1(c2ccccc2)Nc2ccccc2-c2nc3ccccc3n21` (stereo not drawn), the “Growth Inhibition” value was 8.0798%. `COc1cccc(C2(C)Nc3ccccc3-c3nc4ccccc4n32)c1` (stereo not drawn) was tested, and the “Growth Inhibition” value was 2.1776%. In the case of `CC(C)CNC(=O)c1c(N)n(CCc2ccccc2F)c2nc3ccccc3nc12`, the “Growth Inhibition” value is reported as -1.2922%. With `O=C(Nc1ccccc1O)c1ccc(Oc2cccc(C(=O)Nc3ccccc3O)c2)cc1` the “Growth Inhibition” value was 23.386%. In the case of `O=C(Nc1ccc(Br)cc1)Nc1cccc(Cl)c1`, the “Growth Inhibition” value is reported as 8.8754%. With `Oc1ccccc1CN1CCC2(CCCN(Cc3ccccc3F)C2)C1` (stereo not drawn) the “Growth Inhibition” value was 46.3042%. In the case of `COc1cccc(O)c1CN1CCC2(CCCN(Cc3ccc(F)cc3)C2)C1` (stereo not drawn), the “Growth Inhibition” value is reported as 38.0312%. For `COc1cccc(Nc2nc(NCCO)c3ccccc3n2)c1.Cl`, the “Growth Inhibition” value was 21.665%. With `Cc1ccc(-c2cc(C(=O)Nc3ccc(S(=O)(=O)N4CCCCC4)cc3)[nH]n2)c(O)c1` the “Growth Inhibition” value was 28.7504%. With `COc1ccc(C(=O)Nc2ccc3nc(N4CCCCC4)cc(C)c3c2)cc1OC` the “Growth Inhibition” value was 11.0486%. In the case of `COCCNCC(O)Cn1c2ccc(Cl)cc2c2cc(Cl)ccc21` (stereo not drawn), the “Growth Inhibition” value is reported as 45.598%. For `COc1ccc(N2CCN(C(CNC(=O)C3CCCCC3)c3ccc4c(c3)OCO4)CC2)cc1` (stereo not drawn), the “Growth Inhibition” value was 22.7332%. With `COc1ccc2nc(C)cc(Nc3ccc(Cl)cc3)c2c1` the “Growth Inhibition” value was 15.7236%. `FC(F)(F)c1ccc(Nc2nnnc3ccccc23)cc1` was tested, and the “Growth Inhibition” value was 21.2738%. For `O=C(NC1CCN(Cc2ccccc2)CC1)c1cc(-c2ccncc2)nc2ccc(Cl)cc12`, the “Growth Inhibition” value was 12.9682%. `CCC(O)c1ccc(Br)cc1NC(=O)c1cccc(Cl)c1` (stereo not drawn) was tested, and the “Growth Inhibition” value was 24.26%. With `COc1cc2cc(C(=O)Nc3ccccc3)c(N)nc2cc1OC` the “Growth Inhibition” value was 2.432%. `COc1cccc(NC(=O)Cn2c(C)c(C#N)c3ccccc32)c1` was tested, and the “Growth Inhibition” value was 15.89%. For `Cn1c(=O)c2cc(C(=O)NCCCN3CCCCCC3)sc2c2ccccc21`, the “Growth Inhibition” value was 15.852%. For `Cc1[nH]c(-c2ccc(F)cc2)cc1C(=O)NC1CCN(Cc2ccccc2)CC1`, the “Growth Inhibition” value was 9.4322%. In the case of `COc1ccc(CCN2CCC(CN(C)Cc3cnn(-c4ccccc4)c3)CC2)cc1`, the “Growth Inhibition” value is reported as 34.868%. For `O=C(O)C(=O)O.Oc1ccccc1CN1CCN(C(c2ccccc2)c2ccccc2)CC1`, the “Growth Inhibition” value was 27.3522%. In the case of `O=C(NC1CCCC1)c1ccc(N2CCC(NCc3cccc(C(F)(F)F)c3)CC2)cc1`, the “Growth Inhibition” value is reported as 6.6358%. For `CCOc1cc(Br)c(C(C)NC(=O)c2cccc(OC)c2)cc1OCC` (stereo not drawn), the “Growth Inhibition” value was 15.2596%. `CC(C)=CCN1CCC(C(=O)Nc2ccc(-c3nc4ccccc4[nH]3)cc2)CC1` was tested, and the “Growth Inhibition” value was 16.6684%. With `CCOc1cc(Cl)c(C(C)NC(=O)c2cccc(OC)c2)cc1OCC` (stereo not drawn) the “Growth Inhibition” value was 18.9364%. In the case of `FC(F)(F)c1cccc(Nc2nc(-c3ccccc3)nc3ncccc23)c1`, the “Growth Inhibition” value is reported as 9.5538%. In the case of `CCN1CCN(c2cc(C)c3cc(NC(=O)c4ccc(OC)c(OC)c4)ccc3n2)CC1`, the “Growth Inhibition” value is reported as 12.8102%. With `CC(=O)Nc1nnc(SCc2c(C)cc(C(C)(C)C)cc2C)s1` the “Growth Inhibition” value was -6.288%. With `Cc1ccc(Cl)cc1N1CCN(CCCNC(=O)C2CCN(c3nc4ccccc4[nH]3)CC2)CC1` the “Growth Inhibition” value was 21.502%. In the case of `COc1ccc(CNC2CCN(c3ccc(NC(=O)c4cccc(Cl)c4)cc3)CC2)cc1OC`, the “Growth Inhibition” value is reported as 12.3618%. `O=C(Nc1ccc(CN2CCOCC2)cc1)c1ccc(-c2cc(Cl)ccc2Cl)o1` was tested, and the “Growth Inhibition” value was 12.3128%. In the case of `Cc1ccc(CSCc2ccc(C(=O)NC3CC3)o2)cc1`, the “Growth Inhibition” value is reported as 9.7118%. With `CC(NCc1ccccc1)c1cc(Cl)ccc1O` (stereo not drawn) the “Growth Inhibition” value was 40.6308%. For `CN1CCN(c2c3c(c(C#N)c4nc5ccccc5n24)CCC3)CC1`, the “Growth Inhibition” value was 7.7684%. `Cc1cc(Nc2cccc(F)c2)nc(NCc2ccccc2)n1` was tested, and the “Growth Inhibition” value was 7.8192%. `CCOc1ccc(C2N(C)c3ccccc3N2C)cc1` was tested, and the “Growth Inhibition” value was 9.8332%. In the case of `COCCn1c(C)nc2ccccc2c1=O`, the “Growth Inhibition” value is reported as 4.3894%. In the case of `O=C(Nc1cccc(-c2nc3ccccc3[nH]2)c1)c1cccc(NC(=O)c2ccco2)c1`, the “Growth Inhibition” value is reported as 6.1984%. In the case of `COc1ccc(C(=O)Nc2ccc(Cl)cc2C(=O)Nc2ccncc2)cc1`, the “Growth Inhibition” value is reported as 8.2224%. With `O=C(NC1CCN(Cc2ccccc2)CC1)c1cc(-c2cccnc2)nc2ccc(Cl)cc12` the “Growth Inhibition” value was 12.1742%. In the case of `O=C(Nc1ccc(CN2CCOCC2)cc1)c1ccc(-c2ccc(Br)cc2)o1`, the “Growth Inhibition” value is reported as 17.4274%. `CCN(Cc1ccccc1)C1CCN(Cc2cc(Br)ccc2O)CC1.O=C(O)C(=O)O` was tested, and the “Growth Inhibition” value was 47.2545%. With `CC(=O)NCCc1nc2ccccc2n1Cc1ccc(C(C)C)cc1` the “Growth Inhibition” value was 10.8344%. `COc1nc(Nc2ccc(C(C)C)cc2)nc(OC)n1` was tested, and the “Growth Inhibition” value was 1.041%. For `CCN(CC)CCNc1ncnc2c1[nH]c1ccc(Br)cc12`, the “Growth Inhibition” value was 8.817%. For `CCOc1cccc(C(=O)Nc2ccc(-c3nc4ccccc4[nH]3)cc2)c1`, the “Growth Inhibition” value was 7.5178%. `CN(C)c1ccc(-c2nc3cc(N)ccc3[nH]2)cc1` was tested, and the “Growth Inhibition” value was 18.3914%. With `O=C(CSc1ccc2nnc(-c3cccc(F)c3)n2n1)Nc1ccc2c(c1)OCO2` the “Growth Inhibition” value was 8.1908%. With `Cc1c(C)n(Cc2ccc(F)cc2)c2ccc(C(=O)NCc3ccco3)cc12` the “Growth Inhibition” value was 19.2814%. With `CCN(CC)c1ccc(NC(=O)c2cccs2)cc1` the “Growth Inhibition” value was 3.9542%. In the case of `CCCC(c1nnnn1C1CCCCC1)N1CCN(C(=O)c2ccco2)CC1.Cl` (stereo not drawn), the “Growth Inhibition” value is reported as 10.3688%. For `COc1ccc(-c2nonc2NC(=O)c2cccc(Cl)c2)cc1OC`, the “Growth Inhibition” value was 6.9258%. For `Cc1cc(NC(=O)c2ccc(-c3ccccc3)cc2)no1`, the “Growth Inhibition” value was 4.97%. In the case of `CC(C)(C)C(=O)Nc1ccc(C(=O)Nc2cccc(-c3nc4ccccc4[nH]3)c2)cc1`, the “Growth Inhibition” value is reported as 13.3516%. In the case of `COc1ccc(-c2nonc2NC(=O)c2cccc(C)c2)cc1OC`, the “Growth Inhibition” value is reported as 3.7758%. For `COc1cccc(-c2nn(C)c3sc(C(=O)NCCN4CCN(c5ccccc5F)CC4)cc23)c1`, the “Growth Inhibition” value was 20.4084%. `O=C(Nc1ccc(N2CCN(Cc3ccccc3)CC2)cc1)c1cccs1.O=C(O)C(F)(F)F` was tested, and the “Growth Inhibition” value was -8.6144%. For `Cc1ccc(CN2CCC(C(=O)Nc3ccc(-c4cc5ccccc5[nH]4)cc3)CC2)o1`, the “Growth Inhibition” value was 25.7326%. With `O=C(Nc1ccc(N2CCCCC2)c(Cl)c1)c1ccc(Br)o1` the “Growth Inhibition” value was -4.8588%. With `O=C(Nc1ccsc1C(=O)NC1CCCCC1)c1ccc(F)cc1` the “Growth Inhibition” value was 7.047%. With `CCOc1cc2c(cc1OCC)C(c1cc(C)c(O)c(C)c1)NCC2.Cl` (stereo not drawn) the “Growth Inhibition” value was 25.854%. `O=C1CC(O)(C(F)(F)C(F)(F)F)Oc2ccccc21` (stereo not drawn) was tested, and the “Growth Inhibition” value was 1.4958%. `COc1cc(SC)ccc1C(=O)N1CCCC(C)C1` (stereo not drawn) was tested, and the “Growth Inhibition” value was 14.445%. For `O=C(Nc1cccc(C(F)(F)F)c1)c1cc(Cl)ccc1O`, the “Growth Inhibition” value was 14.365%. `CC(C)(C)c1ccc(C(=O)Nc2nc3ccccc3s2)cc1` was tested, and the “Growth Inhibition” value was 9.3876%. For `CC(C)c1ccc(CNCC(O)c2ccccc2)cc1.Cl` (stereo not drawn), the “Growth Inhibition” value was 37.0308%. For `CC1CC(C)CN(C(=O)c2ccc(Cl)cc2Cl)C1` (stereo not drawn), the “Growth Inhibition” value was -2.8594%. `COc1ccccc1CNC(=O)C1c2ccccc2C(=O)N(CC(C)C)C1c1cccs1` (stereo not drawn) was tested, and the “Growth Inhibition” value was 12.474%. For `OC(CNC1CCCC1)Cn1c2ccccc2c2ccccc21` (stereo not drawn), the “Growth Inhibition” value was 39.5038%. In the case of `COc1ccc(C2N(C)c3ccccc3N2C)cc1`, the “Growth Inhibition” value is reported as 3.9982%. With `CCN(CC)c1cc(C)c2cc(NC(=O)c3cccc(OC)c3)ccc2n1` the “Growth Inhibition” value was 11.335%. In the case of `Cc1ccc(NC(=O)Nc2cccc(Cl)c2)cc1F`, the “Growth Inhibition” value is reported as 3.3088%. In the case of `O=C(Nc1ccc(F)c(Cl)c1)Nc1ccc(Cl)c(Cl)c1`, the “Growth Inhibition” value is reported as 4.6714%. For `CCOc1ccc(-c2nc(NC(=O)c3cccc(S(C)(=O)=O)c3)sc2C)cc1`, the “Growth Inhibition” value was 10.5858%. With `O=c1nc(C=Cc2ccc(Cl)cc2)oc2ccccc12` the “Growth Inhibition” value was 11.0552%. `O=C(NCc1ccco1)C1CCN(S(=O)(=O)c2ccc(Br)cc2)CC1` was tested, and the “Growth Inhibition” value was 6.982%. `Clc1ccc2[nH]c3c(NCCCN4CCOCC4)ncnc3c2c1` was tested, and the “Growth Inhibition” value was 9.617%. In the case of `COc1ccc(Nc2nc(NCc3ccccc3)c3ccccc3n2)cc1`, the “Growth Inhibition” value is reported as 17.5424%. In the case of `COc1cc2c(cc1OC)C1=NNC(=O)C1=NC(C)(C)C2`, the “Growth Inhibition” value is reported as 35.8316%. In the case of `COc1ccccc1N1CCN(C(CNS(=O)(=O)c2ccc(Cl)cc2)c2cccnc2)CC1` (stereo not drawn), the “Growth Inhibition” value is reported as 14.3398%. In the case of `Oc1c2c(nc3cc(-c4ccccc4)nn13)CCCC2`, the “Growth Inhibition” value is reported as 5.0802%. In the case of `CCCc1c(C)nc2ccccc2c1O`, the “Growth Inhibition” value is reported as 34.5652%. With `CCCCc1c(C)nc2c(OC)cccc2c1O` the “Growth Inhibition” value was 10.7044%. With `CCOc1c(Cl)cc(CNC(C)C(O)c2ccccc2)cc1OC` (stereo not drawn) the “Growth Inhibition” value was 22.4902%. In the case of `CCOC(=O)C1CCN(C(=O)CN2C(=O)c3ccccc3C2c2c[nH]c3ccccc23)CC1` (stereo not drawn), the “Growth Inhibition” value is reported as 48.711%. For `CCOc1ccc(CCNC(=O)c2cccs2)cc1OCC`, the “Growth Inhibition” value was 6.4232%. For `CCCN(CCC)CCCNC(=O)c1cc2c(-c3ccc(OC)c(OC)c3)nn(C)c2s1`, the “Growth Inhibition” value was 9.751%. In the case of `Cc1cc(N2CCN(C3CCCC3)CC2)n2c(nc3ccccc32)c1C#N`, the “Growth Inhibition” value is reported as 0.943%. `CN1c2ccccc2N(C)C1c1ccc2c(c1)OCO2` was tested, and the “Growth Inhibition” value was 17.3464%. For `CCCCOc1ccc(C(=O)Nc2cc(C)on2)cc1`, the “Growth Inhibition” value was -2.1422%. `O=C(NCC1Cc2cccc(-c3ccncc3)c2O1)c1csc2c1CCCC2` (stereo not drawn) was tested, and the “Growth Inhibition” value was 15.175%. In the case of `CCc1ccc(Nc2cc(C)nc3nc(C)nn23)cc1`, the “Growth Inhibition” value is reported as -2.3802%. With `Br.CCN(CC)S(=O)(=O)c1ccc(-c2csc(Nc3ccc(C)c(C)c3)n2)cc1` the “Growth Inhibition” value was 9.3564%. For `C=C(C)CCC(C)N1CCC(N2CCC(C(=O)NCCc3ccccc3)CC2)CC1` (stereo not drawn), the “Growth Inhibition” value was 9.4772%. `C=CCc1c(C)nc2ccccc2c1O` was tested, and the “Growth Inhibition” value was 8.3394%.
